Test results: ChEMBL document CHEMBL3885861, “Open TG-GATES”

Species on record: Rattus norvegicus
Test: Open TG-GATES - Regimen: Daily Repeat
Assay type: toxicity, organism-based, Sprague-Dawley
Design: regimen Daily Repeat, gender Male, age 6 weeks
Conditions: in vivo, po, route gavage; for APTT / Bas / Eos / Fbg / Ht / Lym / MCHC / MCV / Mono / PT / Plat / RBC / Ret / WBC: tissue Blood; for KIDNEY_L / KIDNEY_R / KIDNEY_TOTAL: tissue Kidney; for LIVER: tissue Liver; for ALP / ALT / AST / BUN / CRE / Ca / Cl / DBIL / IP / LDH / Na / PL / RALB / TBIL / TC / TG / TP / gamma-GTP: tissue Plasma
[1] = 0 mg/kg, 72 h, dose level Control, time 3 day
[2] = 0 mg/kg, […], dose level Control, time 7 day
[3] = 0 mg/kg, […], dose level Control, time 14 day
[4] = 0 mg/kg, […], dose level Control, time 28 day
[5] = 40 mg/kg, 72 h, dose level Low, time 3 day
[6] = 40 mg/kg, […], dose level Low, time 7 day
[7] = 40 mg/kg, […], dose level Low, time 14 day
[8] = 40 mg/kg, […], dose level Low, time 28 day

Structure (SMILES): CC(C)N(CCC(C(N)=O)(c1ccccc1)c1ccccn1)C(C)C (stereo not given) [DISOPYRAMIDE]
- TERMINAL_BW [1]: 230.2 g
- APTT [1]: 22 s
- Bas [1]: 0%
- Eos [1]: 1.2%
- Fbg [1]: 325.2 mg/dL
- Ht [1]: 39.9%
- Lym [1]: 76.8%
- MCHC [1]: 32%
- MCV [1]: 64.5 fL
- Mono [1]: 2.8%
- PT [1]: 15.8 s
- Plat [1]: 130.4 x10_4/uL
- RBC [1]: 617.8 x10_4/ul
- Ret [1]: 7.1%
- WBC [1]: 99.7 x10_2/uL
- KIDNEY_L [1]: 1 g
- KIDNEY_R [1]: 1 g
- KIDNEY_TOTAL [1]: 2 g
- LIVER [1]: 11 g
- ALP [1]: 1742 IU/L
- ALT [1]: 49.6 IU/L
- AST [1]: 80.8 IU/L
- BUN [1]: 17.6 mg/dL
- CRE [1]: 0.2 mg/dL
- Ca [1]: 10.6 mg/dL
- Cl [1]: 107.2 meq/L
- DBIL [1]: 0 mg/dL
- IP [1]: 7.5 mg/dL
- LDH [1]: 201.8 IU/L
- Na [1]: 143 meq/L
- PL [1]: 140.4 mg/dL
- RALB [1]: 2.9 g/dL
- TBIL [1]: 0 mg/dL
- TC [1]: 71.6 mg/dL
- TG [1]: 88 mg/dL
- TP [1]: 5.5 g/dL
- gamma-GTP [1]: 2 IU/L
- TERMINAL_BW [2]: 265.2 g
- TERMINAL_BW [3]: 303.7 g
- TERMINAL_BW [4]: 406.5 g
- APTT [2]: 21.6 s
- Bas [2]: 0%
- Eos [2]: 0.8%
- Fbg [2]: 324 mg/dL
- Ht [2]: 39.9%
- Lym [2]: 78%
- MCHC [2]: 32.1%
- MCV [2]: 62.4 fL
- Mono [2]: 2%
- PT [2]: 16.2 s
- Plat [2]: 116.2 x10_4/uL
- RBC [2]: 639.4 x10_4/ul
- Ret [2]: 6.7%
- WBC [2]: 90.3 x10_2/uL
- APTT [3]: 25.1 s
- Bas [3]: 0%
- Eos [3]: 1%
- Fbg [3]: 319.4 mg/dL
- Ht [3]: 41.9%
- Lym [3]: 80.8%
- MCHC [3]: 33%
- MCV [3]: 58.7 fL
- Mono [3]: 2%
- PT [3]: 15.7 s
- Plat [3]: 113.2 x10_4/uL
- RBC [3]: 715 x10_4/ul
- Ret [3]: 4.4%
- WBC [3]: 124.4 x10_2/uL
- APTT [4]: 24.9 s
- Bas [4]: 0%
- Eos [4]: 1%
- Fbg [4]: 317 mg/dL
- Ht [4]: 42.9%
- Lym [4]: 80%
- MCHC [4]: 33.5%
- MCV [4]: 56.9 fL
- Mono [4]: 2.2%
- PT [4]: 15.7 s
- Plat [4]: 100.4 x10_4/uL
- RBC [4]: 755.2 x10_4/ul
- Ret [4]: 3.4%
- WBC [4]: 136.1 x10_2/uL
- KIDNEY_L [2]: 1.1 g
- KIDNEY_R [2]: 1.1 g
- KIDNEY_TOTAL [2]: 2.3 g
- KIDNEY_L [3]: 1.2 g
- KIDNEY_R [3]: 1.3 g
- KIDNEY_TOTAL [3]: 2.5 g
- KIDNEY_L [4]: 1.6 g
- KIDNEY_R [4]: 1.6 g
- KIDNEY_TOTAL [4]: 3.1 g
- LIVER [2]: 13.2 g
- LIVER [3]: 13.6 g
- LIVER [4]: 17.8 g
- ALP [2]: 1665 IU/L
- ALT [2]: 44 IU/L
- AST [2]: 70.8 IU/L
- BUN [2]: 19 mg/dL
- CRE [2]: 0.2 mg/dL
- Ca [2]: 10.6 mg/dL
- Cl [2]: 106.6 meq/L
- DBIL [2]: 0 mg/dL
- IP [2]: 7.8 mg/dL
- LDH [2]: 199.2 IU/L
- Na [2]: 143.2 meq/L
- PL [2]: 158.6 mg/dL
- RALB [2]: 3 g/dL
- TBIL [2]: 0 mg/dL
- TC [2]: 81.4 mg/dL
- TG [2]: 133.6 mg/dL
- TP [2]: 5.6 g/dL
- gamma-GTP [2]: 2 IU/L
- ALT [3]: 41.8 IU/L
- AST [3]: 68 IU/L
- BUN [3]: 18.6 mg/dL
- CRE [3]: 0.1 mg/dL
- Ca [3]: 10.3 mg/dL
- Cl [3]: 104.8 meq/L
- DBIL [3]: 0 mg/dL
- IP [3]: 7 mg/dL
- LDH [3]: 142.2 IU/L
- Na [3]: 142.2 meq/L
- PL [3]: 146.4 mg/dL
- RALB [3]: 3 g/dL
- TBIL [3]: 0.004 mg/dL
- TC [3]: 71.2 mg/dL
- TG [3]: 138.2 mg/dL
- TP [3]: 5.7 g/dL
- gamma-GTP [3]: 2.2 IU/L
- ALP [4]: 1292.8 IU/L
- ALT [4]: 36.8 IU/L
- AST [4]: 62.8 IU/L
- BUN [4]: 17.4 mg/dL
- CRE [4]: 0.2 mg/dL
- Ca [4]: 10.4 mg/dL
- Cl [4]: 105 meq/L
- DBIL [4]: 0 mg/dL
- IP [4]: 6.8 mg/dL
- LDH [4]: 199.4 IU/L
- Na [4]: 140.6 meq/L
- PL [4]: 145.4 mg/dL
- RALB [4]: 3.1 g/dL
- TBIL [4]: 0.006 mg/dL
- TC [4]: 70.6 mg/dL
- TG [4]: 181.6 mg/dL
- TP [4]: 6.1 g/dL
- gamma-GTP [4]: 2.2 IU/L
- TERMINAL_BW [5]: 231.5 g
- APTT [5]: 20.9 s
- Bas [5]: 0%
- Eos [5]: 1.2%
- Fbg [5]: 313.2 mg/dL
- Ht [5]: 39.2%
- Lym [5]: 81.8%
- MCHC [5]: 32.1%
- MCV [5]: 63.9 fL
- Mono [5]: 2.2%
- PT [5]: 16 s
- Plat [5]: 113.5 x10_4/uL
- RBC [5]: 614.4 x10_4/ul
- Ret [5]: 6.2%
- WBC [5]: 87.7 x10_2/uL
- KIDNEY_L [5]: 1.1 g
- KIDNEY_R [5]: 1.1 g
- KIDNEY_TOTAL [5]: 2.1 g
- LIVER [5]: 10.8 g
- ALP [5]: 1494 IU/L
- ALT [5]: 45.4 IU/L
- AST [5]: 75.4 IU/L
- BUN [5]: 15.4 mg/dL
- CRE [5]: 0.2 mg/dL
- Ca [5]: 10.8 mg/dL
- Cl [5]: 107.8 meq/L
- DBIL [5]: 0 mg/dL
- IP [5]: 7.6 mg/dL
- LDH [5]: 188.2 IU/L
- PL [5]: 146.8 mg/dL
- RALB [5]: 3 g/dL
- TBIL [5]: 0 mg/dL
- TC [5]: 73.4 mg/dL
- TG [5]: 122.4 mg/dL
- TP [5]: 5.4 g/dL
- gamma-GTP [5]: 1.8 IU/L
- TERMINAL_BW [6]: 254.3 g
- TERMINAL_BW [7]: 308.2 g
- TERMINAL_BW [8]: 375 g
- APTT [6]: 20.5 s
- Bas [6]: 0%
- Eos [6]: 0.8%
- Fbg [6]: 323.8 mg/dL
- Ht [6]: 40%
- Lym [6]: 83%
- MCHC [6]: 32.7%
- MCV [6]: 61.2 fL
- Mono [6]: 1.8%
- PT [6]: 15.9 s
- Plat [6]: 122.2 x10_4/uL
- RBC [6]: 654 x10_4/ul
- Ret [6]: 6.2%
- WBC [6]: 120.7 x10_2/uL
- APTT [7]: 23.9 s
- Bas [7]: 0%
- Eos [7]: 1%
- Fbg [7]: 310.6 mg/dL
- Ht [7]: 41.1%
- Lym [7]: 80.6%
- MCHC [7]: 32.8%
- MCV [7]: 59.7 fL
- Mono [7]: 2.2%
- PT [7]: 15.3 s
- Plat [7]: 109 x10_4/uL
- RBC [7]: 688.2 x10_4/ul
- Ret [7]: 4.9%
- WBC [7]: 113.4 x10_2/uL
- APTT [8]: 25.5 s
- Bas [8]: 0%
- Eos [8]: 1.2%
- Fbg [8]: 320.2 mg/dL
- Ht [8]: 43.3%
- Lym [8]: 81%
- MCHC [8]: 33.8%
- MCV [8]: 55.7 fL
- Mono [8]: 2.2%
- PT [8]: 15.4 s
- Plat [8]: 110.5 x10_4/uL
- RBC [8]: 776.4 x10_4/ul
- Ret [8]: 2.6%
- WBC [8]: 121.1 x10_2/uL
- KIDNEY_L [6]: 1 g
- KIDNEY_R [6]: 1.1 g
- KIDNEY_TOTAL [6]: 2.1 g
- KIDNEY_L [7]: 1.3 g
- KIDNEY_R [7]: 1.3 g
- KIDNEY_TOTAL [7]: 2.6 g
- KIDNEY_L [8]: 1.4 g
- KIDNEY_R [8]: 1.4 g
- KIDNEY_TOTAL [8]: 2.7 g
- LIVER [6]: 11.6 g
- LIVER [7]: 14.7 g
- LIVER [8]: 16 g
- ALP [6]: 1528.8 IU/L
- ALT [6]: 48.2 IU/L
- AST [6]: 72.2 IU/L
- BUN [6]: 16.4 mg/dL
- CRE [6]: 0.1 mg/dL
- Ca [6]: 10.4 mg/dL
- Cl [6]: 106.8 meq/L
- DBIL [6]: 0.002 mg/dL
- IP [6]: 7.7 mg/dL
- LDH [6]: 149.8 IU/L
- Na [6]: 143.2 meq/L
- PL [6]: 141.6 mg/dL
- RALB [6]: 2.9 g/dL
- TBIL [6]: 0 mg/dL
- TC [6]: 73.4 mg/dL
- TG [6]: 115.6 mg/dL
- TP [6]: 5.4 g/dL
- gamma-GTP [6]: 1.8 IU/L
- ALP [7]: 1255.8 IU/L
- ALT [7]: 47.8 IU/L
- AST [7]: 75 IU/L
- BUN [7]: 16.8 mg/dL
- CRE [7]: 0.2 mg/dL
- Ca [7]: 10.4 mg/dL
- Cl [7]: 104.8 meq/L
- DBIL [7]: 0 mg/dL
- IP [7]: 7.6 mg/dL
- LDH [7]: 225 IU/L
- Na [7]: 141.6 meq/L
- PL [7]: 147 mg/dL
- RALB [7]: 3.1 g/dL
- TBIL [7]: 0.01 mg/dL
- TC [7]: 73.6 mg/dL
- TG [7]: 131 mg/dL
- TP [7]: 5.7 g/dL
- gamma-GTP [7]: 2.2 IU/L
- ALP [8]: 1094 IU/L
- ALT [8]: 40 IU/L
- AST [8]: 64.6 IU/L
- BUN [8]: 17.4 mg/dL
- CRE [8]: 0.2 mg/dL
- Ca [8]: 10.5 mg/dL
- Cl [8]: 106.4 meq/L
- DBIL [8]: 0 mg/dL
- IP [8]: 6.3 mg/dL
- LDH [8]: 158.6 IU/L
- Na [8]: 140.6 meq/L
- PL [8]: 158 mg/dL
- RALB [8]: 3.1 g/dL
- TBIL [8]: 0.004 mg/dL
- TC [8]: 70 mg/dL
- TG [8]: 205 mg/dL
- TP [8]: 6.1 g/dL
- gamma-GTP [8]: 2.2 IU/L
- TERMINAL_BW (120 mg/kg, 72 h, dose level Middle, time 3 day): 227.1 g
